Test results from article PMC5448077, “Development of an orally available inhibitor of CLK1 for skipping a mutated dystrophin exon in Duchenne muscular dystrophy” (Scientific Reports, 2017).

Key:
CK1δ = biological target: T1, CK1δ (Homo sapiens, UniProt P48730); assay: biochemical
T1 construct: gene CSNK1D
Experimental: (§1) These assays rely on the phosphorylation of small synthetic peptides developed for each kinase, and detect activity by changes in electrophoretic mobility (MSA assay) or by binding of a fluorescently labelled peptide to a large micro-particle and concomitant polarization increases (IMAP assay). Reaction conditions for each kinase are described in Supplementary Table S5. All kinase assays were carried out at Carna Biosciences (Kobe, Japan). The inhibitory map was constructed using Kinome Render[41]. Inhibitor (4×), substrate/ATP-Metal (4×), and kinase (2×) solutions were prepared with assay buffer (20 mM HEPES, 0.01% Triton X-100, 2 mM DTT, pH 7.5) and mixed in 384-well plates at room temperature for 1 or 5 h depending on the kinase. Reactions were stopped by the addition of termination buffer (QuickScout Screening Assist MSA; Carna Biosciences). The entire reaction mixture was then applied to a LabChip system (Perkin-Elmer, Waltham, MA, USA) and the product and substrate peptide peaks were separated and quantified, and then heights of product (P) and substrate (S) peptide peaks were calculated. The level of kinase activity was evaluated with the following equation: activity = P/(P + S).

IGF1R = IGF1R (Homo sapiens, UniProt P08069); assay: biochemical
IGF1R, sequence (P08069 whole entry): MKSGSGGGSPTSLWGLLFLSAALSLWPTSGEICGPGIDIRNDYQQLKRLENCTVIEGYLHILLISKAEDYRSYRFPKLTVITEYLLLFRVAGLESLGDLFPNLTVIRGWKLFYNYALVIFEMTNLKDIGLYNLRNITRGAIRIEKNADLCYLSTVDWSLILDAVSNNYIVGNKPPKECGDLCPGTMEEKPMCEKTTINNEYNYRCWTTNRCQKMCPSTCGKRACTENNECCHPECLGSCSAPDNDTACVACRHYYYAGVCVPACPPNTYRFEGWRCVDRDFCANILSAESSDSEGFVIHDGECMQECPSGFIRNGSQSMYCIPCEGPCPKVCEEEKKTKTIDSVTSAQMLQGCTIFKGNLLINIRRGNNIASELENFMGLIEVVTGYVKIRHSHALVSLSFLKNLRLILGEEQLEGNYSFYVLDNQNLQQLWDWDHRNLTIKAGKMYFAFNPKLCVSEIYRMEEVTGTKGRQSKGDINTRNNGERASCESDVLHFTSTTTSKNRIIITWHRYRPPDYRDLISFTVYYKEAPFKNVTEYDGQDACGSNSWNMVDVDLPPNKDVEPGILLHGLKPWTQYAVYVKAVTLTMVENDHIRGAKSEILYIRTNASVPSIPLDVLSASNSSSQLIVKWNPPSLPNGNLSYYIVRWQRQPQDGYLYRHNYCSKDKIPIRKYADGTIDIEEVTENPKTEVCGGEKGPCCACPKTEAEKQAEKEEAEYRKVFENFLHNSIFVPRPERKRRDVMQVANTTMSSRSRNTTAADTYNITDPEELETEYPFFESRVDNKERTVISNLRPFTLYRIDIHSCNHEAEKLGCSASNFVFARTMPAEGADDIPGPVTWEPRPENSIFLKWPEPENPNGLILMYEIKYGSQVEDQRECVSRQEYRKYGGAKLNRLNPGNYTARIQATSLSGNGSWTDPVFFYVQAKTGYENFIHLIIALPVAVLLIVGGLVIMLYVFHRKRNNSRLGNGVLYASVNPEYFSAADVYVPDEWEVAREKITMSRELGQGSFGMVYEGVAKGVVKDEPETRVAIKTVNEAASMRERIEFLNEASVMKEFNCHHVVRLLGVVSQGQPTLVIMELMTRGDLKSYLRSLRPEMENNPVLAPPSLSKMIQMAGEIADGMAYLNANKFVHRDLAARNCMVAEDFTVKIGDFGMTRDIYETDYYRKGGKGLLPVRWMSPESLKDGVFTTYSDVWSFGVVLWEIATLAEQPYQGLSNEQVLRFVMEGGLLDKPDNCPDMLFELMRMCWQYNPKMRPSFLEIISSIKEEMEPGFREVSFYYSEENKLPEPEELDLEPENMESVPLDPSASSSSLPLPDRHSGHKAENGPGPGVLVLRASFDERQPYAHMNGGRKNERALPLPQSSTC
Experimental: as §1

MST3 = biological target: T2, MST3 (Homo sapiens, UniProt Q9Y6E0); assay: biochemical
T2 construct: gene STK24
T2 sequence (Q9Y6E0 whole entry): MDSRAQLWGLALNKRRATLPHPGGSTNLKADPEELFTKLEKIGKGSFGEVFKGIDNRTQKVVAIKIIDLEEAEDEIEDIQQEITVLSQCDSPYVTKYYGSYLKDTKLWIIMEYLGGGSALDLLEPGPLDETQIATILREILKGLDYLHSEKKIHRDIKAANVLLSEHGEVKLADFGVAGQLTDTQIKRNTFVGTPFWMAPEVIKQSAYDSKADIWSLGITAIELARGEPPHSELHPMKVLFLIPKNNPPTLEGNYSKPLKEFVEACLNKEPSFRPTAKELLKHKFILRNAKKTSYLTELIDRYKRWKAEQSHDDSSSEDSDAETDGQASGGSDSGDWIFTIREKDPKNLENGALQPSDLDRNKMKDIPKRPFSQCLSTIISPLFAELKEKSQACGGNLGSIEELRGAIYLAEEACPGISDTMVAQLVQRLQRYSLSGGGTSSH
Experimental: as §1

TYK2 = TYK2 (Homo sapiens, UniProt P29597); assay: biochemical
Experimental: as §1

TNK1 = TNK1 (Homo sapiens, UniProt Q13470); assay: biochemical
Experimental: as §1

CaMK1δ = biological target: T3, CaMK1δ (Homo sapiens, UniProt Q8IU85); assay: biochemical
T3 construct: gene CAMK1D
Experimental: as §1

p38β = biological target: T4, p38β (Homo sapiens, UniProt Q15759); assay: biochemical
T4 construct: gene MAPK11
Experimental: as §1

LCK = LCK (Homo sapiens, UniProt P06239); assay: biochemical
Experimental: as §1

EPHB3 = EPHB3 (Homo sapiens, UniProt P54753); assay: biochemical
Experimental: as §1

RON = biological target: T5, RON (Homo sapiens, UniProt Q04912); assay: biochemical
T5 construct: gene MST1R
Experimental: as §1

NEK7 = NEK7 (Homo sapiens, UniProt Q8TDX7); assay: biochemical
Experimental: as §1

RSK2 = biological target: T6, RSK2 (Homo sapiens, UniProt P51812); assay: biochemical
T6 construct: gene RPS6KA3
Experimental: as §1

DAPK1 = DAPK1 (Homo sapiens, UniProt P53355); assay: biochemical
Experimental: as §1

PLK3 = PLK3 (Homo sapiens, UniProt Q9H4B4); assay: biochemical
PLK3, sequence (Q9H4B4 whole entry): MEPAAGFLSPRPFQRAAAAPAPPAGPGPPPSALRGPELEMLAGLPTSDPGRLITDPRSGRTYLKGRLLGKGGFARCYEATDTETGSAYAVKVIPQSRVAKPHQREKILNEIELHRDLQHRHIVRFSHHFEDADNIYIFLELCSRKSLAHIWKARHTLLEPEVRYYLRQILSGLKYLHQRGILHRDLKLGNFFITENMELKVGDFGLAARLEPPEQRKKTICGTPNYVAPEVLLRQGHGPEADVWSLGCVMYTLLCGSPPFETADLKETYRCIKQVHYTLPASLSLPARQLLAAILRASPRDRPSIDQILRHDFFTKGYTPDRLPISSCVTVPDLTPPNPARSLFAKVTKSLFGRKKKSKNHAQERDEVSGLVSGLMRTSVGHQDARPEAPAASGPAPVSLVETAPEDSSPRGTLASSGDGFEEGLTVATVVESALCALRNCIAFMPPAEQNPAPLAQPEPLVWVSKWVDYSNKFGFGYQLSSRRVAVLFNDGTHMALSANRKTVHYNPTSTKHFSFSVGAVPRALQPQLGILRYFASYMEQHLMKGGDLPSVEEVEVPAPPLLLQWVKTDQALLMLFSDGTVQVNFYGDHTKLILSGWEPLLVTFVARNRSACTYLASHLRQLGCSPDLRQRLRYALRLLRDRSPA
Experimental: as §1

SYK = SYK (Homo sapiens, UniProt P43405); assay: biochemical
Experimental: as §1

KIT(D816Y) = KIT(D816Y) (Homo sapiens, UniProt P10721, D816Y); assay: biochemical
KIT(D816Y), sequence (P10721 whole entry D816Y): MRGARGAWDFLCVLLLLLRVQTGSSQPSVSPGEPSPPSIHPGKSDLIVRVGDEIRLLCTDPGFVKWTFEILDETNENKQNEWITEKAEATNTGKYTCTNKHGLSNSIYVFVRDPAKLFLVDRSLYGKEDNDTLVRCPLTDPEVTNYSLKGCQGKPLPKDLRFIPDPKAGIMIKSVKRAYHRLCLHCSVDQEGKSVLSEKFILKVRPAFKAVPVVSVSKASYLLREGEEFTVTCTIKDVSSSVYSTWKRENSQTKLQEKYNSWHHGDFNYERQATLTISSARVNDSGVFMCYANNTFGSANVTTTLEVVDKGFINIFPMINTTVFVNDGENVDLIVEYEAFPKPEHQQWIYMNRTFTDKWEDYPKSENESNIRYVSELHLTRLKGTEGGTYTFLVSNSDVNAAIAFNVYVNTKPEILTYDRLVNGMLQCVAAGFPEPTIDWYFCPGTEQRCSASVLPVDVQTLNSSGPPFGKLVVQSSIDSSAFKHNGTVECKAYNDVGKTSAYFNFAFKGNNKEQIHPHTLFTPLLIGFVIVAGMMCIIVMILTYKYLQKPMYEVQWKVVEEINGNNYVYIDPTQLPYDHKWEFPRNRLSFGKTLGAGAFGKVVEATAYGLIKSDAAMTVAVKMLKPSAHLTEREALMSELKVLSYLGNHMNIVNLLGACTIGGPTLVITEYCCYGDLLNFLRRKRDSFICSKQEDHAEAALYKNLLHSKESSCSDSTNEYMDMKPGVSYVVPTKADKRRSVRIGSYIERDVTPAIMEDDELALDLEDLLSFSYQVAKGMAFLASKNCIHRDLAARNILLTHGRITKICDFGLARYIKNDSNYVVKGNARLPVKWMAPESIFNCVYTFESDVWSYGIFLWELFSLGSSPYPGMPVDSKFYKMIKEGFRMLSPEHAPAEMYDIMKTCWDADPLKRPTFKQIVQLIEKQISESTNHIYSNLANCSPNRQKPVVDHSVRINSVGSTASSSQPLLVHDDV
Experimental: as §1

PDHK4 = biological target: T7, PDHK4 (Homo sapiens, UniProt Q16654); assay: biochemical
T7 construct: gene PDK4
Experimental: as §1

FGFR4(V550L) = FGFR4(V550L) (Homo sapiens, UniProt P22455, V550L); assay: biochemical
Experimental: as §1

SRM = biological target: T8, SRM (Homo sapiens, UniProt Q9H3Y6); assay: biochemical
T8 construct: gene SRMS
Experimental: as §1

EPHB1 = EPHB1 (Homo sapiens, UniProt P54762); assay: biochemical
EPHB1, sequence (P54762 whole entry): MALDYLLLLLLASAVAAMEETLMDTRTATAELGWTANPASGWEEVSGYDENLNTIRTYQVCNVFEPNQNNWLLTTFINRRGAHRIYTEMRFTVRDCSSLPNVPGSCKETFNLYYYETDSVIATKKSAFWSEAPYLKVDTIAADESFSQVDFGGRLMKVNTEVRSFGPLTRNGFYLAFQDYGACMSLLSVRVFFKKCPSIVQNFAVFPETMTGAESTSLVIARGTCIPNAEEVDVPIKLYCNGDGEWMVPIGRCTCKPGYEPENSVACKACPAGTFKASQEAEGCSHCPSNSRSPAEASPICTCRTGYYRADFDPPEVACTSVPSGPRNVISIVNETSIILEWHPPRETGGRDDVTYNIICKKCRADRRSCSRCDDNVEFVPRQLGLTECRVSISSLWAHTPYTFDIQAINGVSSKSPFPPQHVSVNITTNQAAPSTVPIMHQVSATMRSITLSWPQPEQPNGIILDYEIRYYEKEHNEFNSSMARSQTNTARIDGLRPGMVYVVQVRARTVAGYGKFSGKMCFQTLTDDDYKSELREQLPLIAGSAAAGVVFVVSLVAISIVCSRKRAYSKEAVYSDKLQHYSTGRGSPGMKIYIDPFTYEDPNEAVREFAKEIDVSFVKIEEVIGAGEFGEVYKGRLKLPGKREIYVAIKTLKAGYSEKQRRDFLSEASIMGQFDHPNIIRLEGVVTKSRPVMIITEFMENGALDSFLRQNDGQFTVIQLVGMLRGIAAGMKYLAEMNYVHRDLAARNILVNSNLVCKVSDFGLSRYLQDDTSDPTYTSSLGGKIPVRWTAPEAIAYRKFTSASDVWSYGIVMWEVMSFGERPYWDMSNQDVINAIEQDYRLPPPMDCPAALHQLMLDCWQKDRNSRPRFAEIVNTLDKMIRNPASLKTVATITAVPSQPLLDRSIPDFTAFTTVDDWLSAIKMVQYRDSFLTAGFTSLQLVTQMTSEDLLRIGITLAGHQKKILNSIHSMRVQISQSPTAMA
Experimental: as §1

TRKB = biological target: T9, TRKB (Homo sapiens, UniProt Q16620); assay: biochemical
T9 construct: gene NTRK2
Experimental: as §1

TSSK3 = TSSK3 (Homo sapiens, UniProt Q96PN8); assay: biochemical
Experimental: as §1

DCAMKL2 = biological target: T10, DCAMKL2 (Homo sapiens, UniProt Q8N568); assay: biochemical
T10 construct: gene DCLK2
Experimental: as §1

CDC7/ASK = CDC7/ASK (Homo sapiens, UniProt O00311); assay: biochemical
Experimental: as §1

NEK4 = NEK4 (Homo sapiens, UniProt P51957); assay: biochemical
Experimental: as §1

SGK = biological target: T11, SGK (Homo sapiens, UniProt O00141); assay: biochemical
T11 construct: gene SGK1
Experimental: as §1

PKACγ = biological target: T12, PKACγ (Homo sapiens, UniProt P22612); assay: biochemical
T12 construct: gene PRKACG
Experimental: as §1

JNK2 = biological target: T13, JNK2 (Homo sapiens, UniProt P45984); assay: biochemical
T13 construct: gene MAPK9
Experimental: as §1

[1] = biological target: T14, CDC2-like kinase 1 (CLK1) (Homo sapiens, UniProt P49759); assay: biochemical
T14 sequence (P49759 whole entry): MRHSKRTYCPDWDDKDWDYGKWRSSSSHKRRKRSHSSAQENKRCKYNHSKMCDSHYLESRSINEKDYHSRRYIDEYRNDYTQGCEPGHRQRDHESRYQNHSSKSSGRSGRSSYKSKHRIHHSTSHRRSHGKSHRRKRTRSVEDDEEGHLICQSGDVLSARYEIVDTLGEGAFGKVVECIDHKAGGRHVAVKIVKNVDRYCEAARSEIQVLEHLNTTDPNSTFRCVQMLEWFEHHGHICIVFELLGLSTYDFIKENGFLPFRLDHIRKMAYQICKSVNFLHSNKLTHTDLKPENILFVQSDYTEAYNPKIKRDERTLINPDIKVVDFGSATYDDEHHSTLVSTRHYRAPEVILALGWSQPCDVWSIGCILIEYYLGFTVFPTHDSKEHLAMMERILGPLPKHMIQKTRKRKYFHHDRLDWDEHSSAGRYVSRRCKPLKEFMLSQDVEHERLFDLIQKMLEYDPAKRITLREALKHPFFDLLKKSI

[2] = biological target: T14, CDC2-like kinase 1 (CLK1); set-up: recombinant GST-tagged human CLK1; settings: 1 µM; inhibitor
Experimental: These assays rely on the phosphorylation of small synthetic peptides developed for each kinase, and detect activity by changes in electrophoretic mobility (MSA assay) or by binding of a fluorescently labelled peptide to a large micro-particle and concomitant polarization increases (IMAP assay). […] Inhibitor (4×), substrate/ATP-Metal (4×), and kinase (2×) solutions were prepared with assay buffer (20 mM HEPES, 0.01% Triton X-100, 2 mM DTT, pH 7.5) and mixed in 384-well plates at room temperature for 1 or 5 h depending on the kinase. Reactions were stopped by the addition of termination buffer (QuickScout Screening Assist MSA; Carna Biosciences). The entire reaction mixture was then applied to a LabChip system (Perkin-Elmer, Waltham, MA, USA) and the product and substrate peptide peaks were separated and quantified, and then heights of product (P) and substrate (S) peptide peaks were calculated. The level of kinase activity was evaluated with the following equation: activity = P/(P + S).

Haspin = Haspin (Homo sapiens, UniProt Q8TF76); assay: recombinant kinase panel (IMAP or mobility shift assay), percent inhibition at […] TG693; assay type: biochemical; settings: read-out: % inhibition at 1 μM

`c1cc(-c2ccc3[nH]ncc3c2)ccn1` [TG693, 5-(4-pyridinyl)-1H-indazole] was tested, and the inhibition at 1 µM (CK1δ) was 21.3%, the inhibition at 1 µM (IGF1R) was 3.3% and the inhibition at 1 µM (MST3) was 1%. It also gave an inhibition at 1 µM (TYK2) of 0.6%, an inhibition at 1 µM (TNK1) of 3.8% and an inhibition at 1 µM (CaMK1δ) of 7%. For the same compound, the inhibition at 1 µM (p38β) was -1.5%, the inhibition at 1 µM (LCK) was -8.4% and the inhibition at 1 µM (EPHB3) was -0.5%. For the same compound, the inhibition at 1 µM (RON) was 1.1%, the inhibition at 1 µM (NEK7) was -9% and the inhibition at 1 µM (RSK2) was 2.1%. It also gave an inhibition at 1 µM (DAPK1) of -1.8%, an inhibition at 1 µM (PLK3) of 1.7% and an inhibition at 1 µM (SYK) of -60.9%. The inhibition at 1 µM (KIT(D816Y)) was -1.7%, the inhibition at 1 µM (PDHK4) was 3.1% and the inhibition at 1 µM (FGFR4(V550L)) was -36.6%. The inhibition at 1 µM (SRM) was 1.5%, the inhibition at 1 µM (EPHB1) was 2.5% and the inhibition at 1 µM (TRKB) was 0.1%. It also gave an inhibition at 1 µM (TSSK3) of 0.8%, an inhibition at 1 µM (DCAMKL2) of 9.6% and an inhibition at 1 µM (CDC7/ASK) of 10.8%. It also gave an inhibition at 1 µM (NEK4) of -4.2%, an inhibition at 1 µM (SGK) of 5.6% and an inhibition at 1 µM (PKACγ) of 1.5%. For the same compound, the inhibition at 1 µM (JNK2) was -5.9%, the Ki [1] was 105 nM and the “%Inhibition” value [2] was 92.6%. It also gave an inhibition at 1 µM (Haspin) of over 90%.
